Assays:
MMP-9 [1] = target: T1, MMP-9 (Homo sapiens, UniProt P14780); test: Fluorometric substrate assay (MMP inhibitor profiling kit); format: biochemical; set-up: purchased Enzo life sciences BML-AK308
Protocol: (§1) Kit contained a panel of ten MMPs and a quenched fluorogenic substrate OMNIMMP® RED. Composition of a quenched fluorogenic substrate was TQ3-GABA-Pro-Cha-Abu-Smc-His-Ala-Dab(6’-TAMRA)-Ala-Lys-NH2 [TQ3 = quencher; GABA = 4-aminobutyric acid; Cha = L-cyclohexylalanine; Abu = 2-aminobutyric acid; Smc = S-methyl-L-cysteine; Dab = 2,4-diaminobutyric acid; 6’-TAMRA = 6’-tetramethylrhodamine]. Experiment was performed as per instructions provided in the manufacturer’s manual. The assays were performed in a 96-well, black, flat, microplate format. The compound NNGH was provided as a prototypic control inhibitor. […] Untreated MMPs were used as control. The experiment was performed in biological triplicates. After 60-min incubation, fluorogenic substrate OMNIMMP® RED was added to each reaction/well to start the reaction. The plate was continuously read at Ex/Em = 545/576 nm (cutoff at 570 nm) for 30 min with 1-min time intervals at constant temperature, 37 °C, using Molecular Devices SpectraMax M3 plate reader with SoftMax Pro 6.2 software.

MMP-2 = target: T2, MMP-2 (Homo sapiens, UniProt P08253); test: as above; format: biochemical; set-up: purchased Enzo life sciences BML-AK308
T2 sequence (P08253 110-660): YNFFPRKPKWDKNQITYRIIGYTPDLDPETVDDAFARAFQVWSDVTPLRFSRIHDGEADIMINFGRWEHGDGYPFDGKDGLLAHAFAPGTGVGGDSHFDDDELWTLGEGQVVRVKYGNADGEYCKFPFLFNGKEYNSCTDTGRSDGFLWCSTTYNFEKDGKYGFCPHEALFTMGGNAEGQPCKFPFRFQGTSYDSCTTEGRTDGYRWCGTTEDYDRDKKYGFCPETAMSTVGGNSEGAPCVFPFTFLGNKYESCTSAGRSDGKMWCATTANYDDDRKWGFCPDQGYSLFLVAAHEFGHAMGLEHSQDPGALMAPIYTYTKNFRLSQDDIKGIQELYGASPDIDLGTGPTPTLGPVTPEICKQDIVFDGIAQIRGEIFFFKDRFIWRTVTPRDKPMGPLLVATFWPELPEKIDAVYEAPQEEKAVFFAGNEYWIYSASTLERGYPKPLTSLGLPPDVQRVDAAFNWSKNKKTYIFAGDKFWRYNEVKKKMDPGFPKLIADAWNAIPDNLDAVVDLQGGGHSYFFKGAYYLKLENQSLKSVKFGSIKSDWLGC
Protocol: as §1

MMP-9 [2] = target: T1, MMP-9; test: Gelatin zymography of medium of PMA-stimulated THP-1 cells; format: cell-based; set-up: endogenous in cells; host or cells: PMA-stimulated THP-1 cells, culture medium; conditions: 100 µM, 18 h, compared to controls
Protocol: THP-1 cells were plated in 12-well plates at a density of 1 × 10^6 cells per well. First, THP-1 were treated with phorbol-12-myristate-13-acetate (PMA) for 24 h to promote the differentiation of cells into macrophages and stimulate MMP secretion. […] For each treatment, biological triplicate samples were utilized. Following treatment, cell medium was collected from each well and centrifuged at 800 × g for 10 min at 4 °C to remove any cell debris. Collected samples were stored at − 80 °C for further analysis. A 10% SDS–polyacrylamide gel containing 0.1% gelatin was loaded with 3 µg of protein from cell medium for gelatin zymography. In parallel, second 10% SDS–polyacrylamide gel was used to assess equal protein loading. In addition, recombinant human MMP-2 and MMP-9 (10 ng each) were loaded as standards (EMD Millipore, Burlington, MA). Gel ran at 60 V until the loading dye reached the bottom of the gel. After the run, the gelatin gel was washed with water for 15 min and incubated in renaturation buffer [2.5% (v/v) Triton X-100 in Milli-Q water] for 60 min at room temperature. The renaturation buffer was replaced with a fresh renaturation buffer at the interval of 30 min. […] Relative activity of MMPs was measured by quantitating band density by ImageJ software and normalized with respective standard.

T1 sequence (P14780 94-707): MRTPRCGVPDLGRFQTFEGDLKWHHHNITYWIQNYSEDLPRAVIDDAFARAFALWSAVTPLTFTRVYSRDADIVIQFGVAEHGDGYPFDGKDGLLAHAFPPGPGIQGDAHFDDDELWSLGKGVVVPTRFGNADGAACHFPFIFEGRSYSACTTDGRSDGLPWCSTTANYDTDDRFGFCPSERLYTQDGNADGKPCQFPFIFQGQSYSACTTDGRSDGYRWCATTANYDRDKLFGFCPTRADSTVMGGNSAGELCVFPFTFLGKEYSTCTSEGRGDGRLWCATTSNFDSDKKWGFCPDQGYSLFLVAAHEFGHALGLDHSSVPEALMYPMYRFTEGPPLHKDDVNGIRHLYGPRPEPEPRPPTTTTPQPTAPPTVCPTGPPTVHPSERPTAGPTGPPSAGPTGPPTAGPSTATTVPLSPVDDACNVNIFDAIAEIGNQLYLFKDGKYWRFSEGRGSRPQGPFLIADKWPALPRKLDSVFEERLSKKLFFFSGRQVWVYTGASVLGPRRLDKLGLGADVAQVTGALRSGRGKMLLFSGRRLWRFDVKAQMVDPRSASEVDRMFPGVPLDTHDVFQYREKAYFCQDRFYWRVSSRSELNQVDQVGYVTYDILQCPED

C[C@@H]1CCO[C@H]2Cn3cc(C(=O)NCc4ccc(F)cc4F)c(=O)c(O)c3C(=O)N12 [DTG, Dolutegravir]
inhibitory effect compared to doxycycline (MMP-9 [1]; MMP-9, 20 µM): higher inhibitory effect
IC50 (MMP-9 [1]; human recombinant MMP-9, 60 min preincubation, four-parameter fit): 11.1 µM
inhibitory effect compared to doxycycline (MMP-2; MMP-2, 20 µM): higher inhibitory effect
IC50 (MMP-2; human recombinant MMP-2, 60 min preincubation, four-parameter fit): 16.9 µM
Relative activity of pro form of MMP-9 (MMP-9 [2]): significantly decreased
